Test results: PubChem BioAssay AID248 (DTP/NCI, 2004)
Several values for one entry are separate records, joined by “and”; a condition that tells them apart may be missing. Equal entries are not always repeated. Toxic doses and inconclusive results are not listed. No stated cut-off is given here; in the data, active means T/C of 150% or more; inactive means T/C below 125%.

System: L1210 leukemia ip in BDF1 mice, survival T/C
Assay: NCI In Vivo Anticancer Drug Screen. Data for tumor model L1210 Leukemia (intraperitoneal) in B6D2F1 (BDF1) mice
Conditions: endpoint: mean survival time, higher = longer survival
Summary of the method: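 Transplantable tumor model; survival measured in treated vs vehicle control mice. Value = treated/control.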

[1] = dose: 200.0 mg/kg/injection, schedule: Q01DX009 (ip), vehicle: Klucel (hydroxypropylcellulose) (HPC)
[2] = dose: 100.0 mg/kg/injection, schedule: Q04DX002 (ip), vehicle: Klucel (hydroxypropylcellulose) (HPC)
[3] = dose: 200.0 mg/kg/injection, schedule: Q04DX002 (ip), vehicle: Klucel (hydroxypropylcellulose) (HPC)
[4] = dose: 100.0 mg/kg/injection, schedule: Q04DX003 (ip), vehicle: saline with Tween-80
[5] = dose: 200.0 mg/kg/injection, schedule: Q04DX003 (ip), vehicle: saline with Tween-80
[6] = dose: 100.0 mg/kg/injection, schedule: Q01DX001 (ip), vehicle: carboxymethylcellulose (CMC)
[7] = dose: 200.0 mg/kg/injection, schedule: Q01DX001 (ip), vehicle: carboxymethylcellulose (CMC)
[8] = dose: 400.0 mg/kg/injection, schedule: Q01DX001 (ip), vehicle: carboxymethylcellulose (CMC)
[9] = dose: 12.5 mg/kg/injection, schedule: Q01DX009 (ip), vehicle: saline with Tween-80
[10] = dose: 50.0 mg/kg/injection, schedule: Q01DX001 (ip), vehicle: saline
[11] = dose: 100.0 mg/kg/injection, schedule: Q01DX001 (ip), vehicle: saline
[12] = dose: 100.0 mg/kg/injection, schedule: Q01DX001 (ip), vehicle: saline with Tween-80
[13] = dose: 100.0 mg/kg/injection, schedule: Q04DX002 (ip), vehicle: saline with Tween-80
[14] = dose: 200.0 mg/kg/injection, schedule: Q01DX001 (ip), vehicle: saline with Tween-80
[15] = dose: 200.0 mg/kg/injection, schedule: Q01DX009 (ip), vehicle: saline with Tween-80
[16] = dose: 200.0 mg/kg/injection, schedule: Q04DX002 (ip), vehicle: saline with Tween-80
[17] = dose: 400.0 mg/kg/injection, schedule: Q01DX001 (ip), vehicle: saline with Tween-80
[18] = dose: 400.0 mg/kg/injection, schedule: Q04DX002 (ip), vehicle: saline with Tween-80
[19] = dose: 100.0 mg/kg/injection, schedule: Q04DX003 (ip), vehicle: Klucel (hydroxypropylcellulose) (HPC)
[20] = dose: 200.0 mg/kg/injection, schedule: Q04DX003 (ip), vehicle: Klucel (hydroxypropylcellulose) (HPC)
[21] = dose: 400.0 mg/kg/injection, schedule: Q04DX003 (ip), vehicle: Klucel (hydroxypropylcellulose) (HPC)
[22] = dose: 100.0 mg/kg/injection, schedule: Q04DX003 (ip), vehicle: saline
[23] = dose: 200.0 mg/kg/injection, schedule: Q04DX003 (ip), vehicle: saline

Measured: T/C

O=P(NC12CC3CC(CC(C3)C1)C2)(NC12CC3CC(CC(C3)C1)C2)N(CCCl)CCCl
inactive: dose: 50.0 mg/kg/injection, schedule: Q01DX009 (ip), vehicle: Klucel (hydroxypropylcellulose) (HPC) 112 % of control | dose: 100.0 mg/kg/injection, schedule: Q01DX001 (ip), vehicle: Klucel (hydroxypropylcellulose) (HPC) 105 % of control | dose: 100.0 mg/kg/injection, schedule: Q01DX009 (ip), vehicle: Klucel (hydroxypropylcellulose) (HPC) 104 % of control | dose: 200.0 mg/kg/injection, schedule: Q01DX001 (ip), vehicle: Klucel (hydroxypropylcellulose) (HPC) 94 % of control | [1] 89 % of control | dose: 400.0 mg/kg/injection, schedule: Q01DX001 (ip), vehicle: Klucel (hydroxypropylcellulose) (HPC) 98 % of control

COc1ccc(/C=N\NC(=O)c2ccncc2)cc1O
inactive: [2] 118 % of control | [3] 106 % of control | dose: 400.0 mg/kg/injection, schedule: Q04DX002 (ip), vehicle: Klucel (hydroxypropylcellulose) (HPC) 106 % of control

CCOC1=C(NC(C)=O)C(=O)c2ccccc2C1=O
inactive: dose: 75.0 mg/kg/injection, schedule: Q01DX001 (ip), vehicle: other 100 % of control

CCCCCCSC(=O)Nc1ccc(C)c(NC(=O)SCCCCCC)c1
inactive: [4] 91 % of control | [5] 89 % of control

O=C1c2ccccc2-c2cc([N+](=O)[O-])c(NC(=O)C(Cl)Cl)cc21
inactive: [6] 96 % of control | [7] 107 % of control | [8] 102 % of control

Cc1ccc(NC(=O)COc2ccc([N+](=O)[O-])cc2Cl)cc1S(=O)(=O)F
inactive: dose: 87.5 mg/kg/injection, schedule: Q04DX003 (ip), vehicle: gum acacia 97 % of control | dose: 175.0 mg/kg/injection, schedule: Q04DX003 (ip), vehicle: gum acacia 100 % of control | dose: 350.0 mg/kg/injection, schedule: Q04DX003 (ip), vehicle: gum acacia 94 % of control

BrCCC[P+](c1ccccc1)(c1ccccc1)c1ccccc1
inactive: [9] 103 % of control | dose: 25.0 mg/kg/injection, schedule: Q04DX003 (ip), vehicle: saline with Tween-80 97 % of control | [10] 104 % of control | dose: 50.0 mg/kg/injection, schedule: Q04DX003 (ip), vehicle: Klucel (hydroxypropylcellulose) (HPC) 107 % of control | dose: 50.0 mg/kg/injection, schedule: Q04DX003 (ip), vehicle: saline with Tween-80 97 % of control | [11] 116 % of control

CCOC(=O)c1ccc(NC(=O)Nc2ccc(OC)cc2Cl)cc1
inactive: [12] 96 % of control | dose: 100.0 mg/kg/injection, schedule: Q01DX009 (ip), vehicle: saline with Tween-80 104 % of control | [13] 94 % of control and 90 % of control | [4] 101 % of control | [14] 91 % of control | [15] 104 % of control | [16] 90 % of control and 91 % of control | [5] 97 % of control | [17] 106 % of control | dose: 400.0 mg/kg/injection, schedule: Q01DX009 (ip), vehicle: saline with Tween-80 92 % of control | [18] 94 % of control and 87 % of control | dose: 400.0 mg/kg/injection, schedule: Q04DX003 (ip), vehicle: saline with Tween-80 92 % of control

C=C(C)C1(Cc2ccccc2)C(=O)NC(=S)NC1=O
inactive: dose: 9.38 mg/kg/injection, schedule: Q01DX001 (ip), vehicle: saline 91 % of control | dose: 10.0 mg/kg/injection, schedule: Q01DX001 (ip), vehicle: saline 102 % of control

CCCCCCCC(CC(=O)O)OC(=O)CC(CCCCCCC)OC1OC(C)C(O)C(O)C1OC1OC(C)C(O)C(O)C1O (stereo not drawn)
inactive: [2] 102 % of control | [3] 102 % of control

Cc1ccc(S(=O)(=O)N/N=C(/c2ccccc2)c2ccsc2C)cc1
inactive: [12] 98 % of control | [14] 88 % of control | [17] 92 % of control

Nc1nc(N)c(N=C/C=C\c2ccc([N+](=O)[O-])cc2)c(-c2ccccc2)n1
inactive: [10] 113 % of control | [11] 107 % of control | dose: 200.0 mg/kg/injection, schedule: Q01DX001 (ip), vehicle: saline 91 % of control | dose: 400.0 mg/kg/injection, schedule: Q01DX001 (ip), vehicle: saline 103 % of control

O=C(N/N=C/c1ccc2c(c1)OCO2)c1ccc([N+](=O)[O-])cc1
inactive: dose: 50.0 mg/kg/injection, schedule: Q01DX001 (ip), vehicle: carboxymethylcellulose (CMC) 97 % of control | [6] 92 % of control | [7] 94 % of control | [8] 92 % of control

CCCCCCCCCCCCSC(=O)Nc1ccc([N+](=O)[O-])cc1Cl
inactive: [1] 107 % of control | dose: 400.0 mg/kg/injection, schedule: Q01DX009 (ip), vehicle: Klucel (hydroxypropylcellulose) (HPC) 102 % of control

O=C1C(c2ccc(Br)cc2)=C(c2ccccc2)c2c(-c3ccccc3)cc(Br)c(-c3ccccc3)c21
inactive: [12] 90 % of control | [14] 90 % of control | [17] 87 % of control

CCOC(=O)c1cnc(SC)nc1NC(C)(C)C
inactive: [19] 101 % of control | [20] 100 % of control | [21] 94 % of control

CCCCCCCCCCCCCCCCCC(=O)Oc1cccc2cccnc12
inactive: [13] 93 % of control | [16] 93 % of control | [18] 106 % of control

CCOC(=O)N/N=C/C(Br)=C\c1ccccc1
inactive: dose: 50.0 mg/kg/injection, schedule: Q01DX009 (ip), vehicle: saline with Tween-80 93 % of control | [13] 101 % of control | [15] 87 % of control | [16] 96 % of control

C=CCOc1c(Cl)c(Cl)c(Cl)c(Cl)c1Cl
inactive: dose: 100.0 mg/kg/injection, schedule: Q01DX009 (ip), vehicle: saline sonified 96 % of control | [19] 96 % of control | dose: 200.0 mg/kg/injection, schedule: Q01DX009 (ip), vehicle: saline sonified 91 % of control | [20] 96 % of control | dose: 400.0 mg/kg/injection, schedule: Q01DX009 (ip), vehicle: saline sonified 97 % of control | [21] 96 % of control

Oc1ccccc1C=NCCN1CC1.Oc1ccccc1C=NCCN1CC1.[Ni+2]
inactive: [9] 88 % of control | dose: 25.0 mg/kg/injection, schedule: Q01DX009 (ip), vehicle: saline with Tween-80 96 % of control | [22] 98 % of control

Nc1ncnc(N)c1NC(=O)CCCCc1ccccc1
inactive: [22] 100 % of control | [23] 92 % of control | dose: 400.0 mg/kg/injection, schedule: Q04DX003 (ip), vehicle: saline 100 % of control

NCCc1ccc(Nc2ccnc3cc(Cl)ccc23)cc1
inactive: dose: 75.0 mg/kg/injection, schedule: Q01DX001 (ip), vehicle: saline 109 % of control | dose: 150.0 mg/kg/injection, schedule: Q01DX001 (ip), vehicle: saline 101 % of control | dose: 300.0 mg/kg/injection, schedule: Q01DX001 (ip), vehicle: saline 98 % of control

CCOC(=O)N(C1CCCCC1)P(=O)(OCC)OCC
inactive: dose: 12.5 mg/kg/injection, schedule: Q01DX009 (ip), vehicle: saline 96 % of control and 108 % of control | dose: 12.5 mg/kg/injection, schedule: Q04DX003 (ip), vehicle: saline 100 % of control | dose: 25.0 mg/kg/injection, schedule: Q01DX009 (ip), vehicle: saline 100 % of control and 91 % of control | dose: 25.0 mg/kg/injection, schedule: Q04DX003 (ip), vehicle: saline 107 % of control | dose: 50.0 mg/kg/injection, schedule: Q01DX009 (ip), vehicle: saline 97 % of control and 100 % of control | dose: 50.0 mg/kg/injection, schedule: Q04DX003 (ip), vehicle: saline 110 % of control | dose: 100.0 mg/kg/injection, schedule: Q01DX009 (ip), vehicle: saline 103 % of control and 91 % of control | [22] 103 % of control | [23] 100 % of control

COc1ccc(OC)c(C(=O)CCCCCCCCC(=O)c2cc(OC)ccc2OC)c1
inactive: [19] 104 % of control | [20] 104 % of control | [21] 90 % of control
